Test results as given in paper PMC8453936, “Development and in vitro Profiling of Dual FXR/LTA4H Modulators” (Chemmedchem, 2021).

What was measured:
[1] = target: T1, recombinant human FXR LBD (Homo sapiens, UniProt Q96RI1); experiment: Isothermal titration calorimetry on FXR LBD; conditions: ITC, 25 °C, 1:1 binding assumed
T1 construct: Recombinant FXR LBD for ITC experiments was obtained; His6-tag (TEV-cleavable) (cleaved yes); made in house; host or cells: E. coli BL21 (DE3)
T1 sequence (Q96RI1 262-486 limits assumed): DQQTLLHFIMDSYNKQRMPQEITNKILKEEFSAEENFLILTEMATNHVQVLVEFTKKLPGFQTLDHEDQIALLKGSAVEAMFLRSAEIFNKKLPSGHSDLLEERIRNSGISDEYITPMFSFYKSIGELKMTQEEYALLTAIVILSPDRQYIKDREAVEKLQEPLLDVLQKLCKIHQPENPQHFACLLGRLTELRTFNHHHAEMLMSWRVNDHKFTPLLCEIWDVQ

[2] = system: HepG2 cells; experiment: WST-1 cell viability assay; type: cell-based; conditions: up to 100 μM, 48 h
[3] = system: related nuclear receptors (RAR, PPAR, LXR, VDR, CAR, RXR); experiment: Gal4 hybrid reporter gene assays, selectivity over related nuclear receptors (HEK293T); type: cell-based, human; conditions: heatmap of mean relative activation, n=2
Excerpt: Isothermal titration calorimetry (ITC) confirmed binding of 8 and 19 to the recombinant proteins of both FXR LBD and LTA4H (Figure 1).
Figure 2 (a) Selectivity profiles of 8 and 19 over related nuclear receptors. […] (b) Activity of 8 and 19 in a WST‐1 cell viability assay in HepG2 cells. Data are mean±S.E.M., n=4. […] Data are mean±S.E.M. relative FXR activation (%), n≥3. […] Data are mean±S.E.M. relative LTA4H inhibition (%), n=3.
Hybrid reporter gene assays. Nuclear receptor modulation was determined in hybrid reporter gene assays using the Gal4‐fusion receptor plasmids pFA‐CMV‐hPPARα‐LBD,[39] pFA‐CMV‐hPPARγLBD,[39] pFA‐CMV‐hPPARδ‐LBD,[39] pFA‐CMV‐hLXRα‐LBD,[40] pFACMV‐hLXRβ‐LBD,[40] pFA‐CMV‐hRXRα‐LBD,[41] pFA‐CMV‐hRARα‐LBD,[41] pFA‐CMV‐hVDR‐LBD[41] and pFA‐CMV‐hCAR‐LBD[41] coding for the hinge region and ligand binding domain (LBD) of the canonical isoform of the respective nuclear receptor, pFR‐Luc (Stratagene) as reporter plasmid and pRL‐SV40 (Promega) for normalization of transfection eﬃciency. HEK293T cells were grown in DMEM high glucose, supplemented with 10 % FCS, sodium pyruvate (1 mM), penicillin (100 U/mL), and streptomycin (100 μg/mL) at 37 °C and 5 % CO2, and seeded in 96‐well plates (2.5 ⋅ 10^4 cells/well) the day before transfection. […] Luminescence was measured with an Infinite M200 luminometer (Tecan Deutschland GmbH, Germany). […]

[4] = target: T2, recombinant human LTA4H (Homo sapiens, UniProt P09960); experiment: Isothermal titration calorimetry on LTA4H; parameters: His-tag (inferred from IMAC on HisTrap); made in house; host or cells: E. coli BL21(DE3)RIPL-Codon Plus; conditions: ITC, 25 °C, 1:1 binding assumed
T2 sequence (P09960 1-611): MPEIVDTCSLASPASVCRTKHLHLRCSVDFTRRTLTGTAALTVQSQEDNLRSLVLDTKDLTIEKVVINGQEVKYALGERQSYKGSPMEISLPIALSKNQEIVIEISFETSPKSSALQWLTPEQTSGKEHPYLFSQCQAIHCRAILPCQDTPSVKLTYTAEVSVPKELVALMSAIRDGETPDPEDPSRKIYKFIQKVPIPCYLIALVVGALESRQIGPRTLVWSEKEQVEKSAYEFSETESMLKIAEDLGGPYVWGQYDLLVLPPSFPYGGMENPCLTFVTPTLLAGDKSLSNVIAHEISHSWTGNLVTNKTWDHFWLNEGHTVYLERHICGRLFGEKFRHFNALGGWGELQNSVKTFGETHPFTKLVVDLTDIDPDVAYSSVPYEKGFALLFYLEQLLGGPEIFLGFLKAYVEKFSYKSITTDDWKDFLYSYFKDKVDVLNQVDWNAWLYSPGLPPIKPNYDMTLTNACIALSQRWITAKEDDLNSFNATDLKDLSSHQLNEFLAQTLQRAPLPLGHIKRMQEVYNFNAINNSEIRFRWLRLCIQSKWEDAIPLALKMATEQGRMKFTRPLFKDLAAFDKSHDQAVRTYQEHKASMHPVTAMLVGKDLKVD

Kd [1] | selectivity over related nuclear receptors [3] | Kd [4] | SMILES | cytotoxic / anti-proliferative effect in WST-1 assay [2]
~3000 nM | favorable selectivity | ~700 nM | O=C(O)c1ccnc(NC(=O)c2ccc(OCCCc3ccccc3)cc2)c1 [compound 19, 2‐(4‐(3‐Phenylpropoxy)benzamido)isonicotinic acid] | no cytotoxic effects
~7000 nM | favorable selectivity | ~300 nM | O=C(O)c1cccc(NC(=O)c2ccc(OCCCc3ccccc3)cc2)c1 [compound 8] | slight anti‐proliferative activity at high concentration
